Experimental data reported in patent publication US9499550B2 (BRISTOL-MYERS SQUIBB COMPANY, priority 2012, dated 2016).
pEC50: −log10 of the molar value. Where two headings read alike, the source gives them in different places.

Columns and labels:
[1] = tested on: HCV genotype 1a (H77 strain) replicon in HUH-7 cells; experiment: HCV replicon luciferase reporter assay, genotype 1a; format: cell-based; conditions: Hepatitis C virus, Huh-7, 72 h, 3 days incubation
How it was run: (§1)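 Replicon inhibition for both genotypes was measured as Renilla luciferase signal (EnduRen, 7.5 μM final, 2 h) after 3-day, 37° C exposure of replicon-bearing HUH-7 cells in 4% FCS DMEM, 0.5% DMSO. The 1b construct carries S1179I; the 1a H77 construct carries P1496L and S2204I. Twenty-point, 3-fold dilutions were fitted four-parametrically for EC50, and CC50 was taken from multiplexed Cell Titer-Blue.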

[2] = tested on: HCV genotype 1b (Con1) replicon in HUH-7 cells; experiment: HCV replicon luciferase reporter assay, genotype 1b; format: cell-based; conditions: Hepatitis C virus, Huh-7, 72 h, 3 days incubation
How it was run: as §1

[3] = HCV genotype 1a replicon luciferase assay, range class, read-out: LE_1a (EC50, range)
[4] = HCV genotype 1b replicon luciferase assay, range class, read-out: LE_1b (EC50, range)
[5] = HCV genotype 1a replicon luciferase, read-out: LE_1a (EC50, range)
[6] = HCV genotype 1b replicon luciferase, read-out: LE_1b (EC50, range)

Row | Compound | pEC50 [1, 3] | pEC50 [2, 4] | pEC50 [1, 5] | pEC50 [2, 6] | other results
1 | COc1ccc2c(O[C@@H]3C[C@H]4C(=O)N[C@]5(C(=O)NS(=O)(=O)C6CC6)C[C@H]5/C=C\CC[C@@H](C)C[C@@H](C)[C@H](NC(=O)O[C@@H]5C[C@@H]6C[C@@H]6C5)C(=O)N4C3)nccc2c1F [Compound 3152, (1R,3r,5S)-bicyclo[3.1.0]hexan-3-yl((2R,6S,7R,9R,13aS,14aR,16aS,Z)-14a-((cyclopropylsulfonyl)carbamoyl)-2-((5-fluoro-6-methoxyisoquinolin-1-yl)oxy)-7,9-dimethyl-5,16-dioxo-1,2,3,5,6,7,8,9,10,11,13a,14,14a,15,16,16a-hexadecahydrocyclopropa[e]pyrrolo[1,2-a][1,4]diazacyclopentadecin-6-yl)carbamate] | > 8.26 | > 8.26 |  |  | 
2 | [2H]C([2H])([2H])C(OC(=O)N[C@@H]1C(=O)N2C[C@H](Oc3nc(N(C)C)cc4cc(OC)ccc34)C[C@H]2C(=O)N[C@]2(C(=O)NS(=O)(=O)C3(C)CC3)C[C@H]2/C=C\CC[C@H](C)C[C@H]1C)(C([2H])([2H])[2H])C(F)(F)F [Compound 3114, 1,1,1,3,3,3-hexadeutero-2-(trifluoromethyl)propan-2-yl((2R,6S,7R,9S,13aS,14aR,16aS,Z)-2-((3-(dimethylamino)-6-methoxyisoquinolin-1-yl)oxy)-7,9-dimethyl-14a-(((1-methylcyclopropyl)sulfonyl)carbamoyl)-5,16-dioxo-1,2,3,5,6,7,8,9,10,11,13a,14,14a,15,16,16a-hexadecahydrocyclopropa[e]pyrrolo[1,2-a][1,4]diazacyclopentadecin-6-yl)carbamate] | 6.99 to 8.32 | 6.99 to 8.32 |  |  | 
3 | COc1cc(F)cc2c(O[C@@H]3C[C@H]4C(=O)N[C@]5(C(=O)NS(=O)(=O)C6(C)CC6)C[C@H]5/C=C\CC[C@H](C)C[C@@H](C)[C@H](NC(=O)OC(C)(C)C(F)(F)F)C(=O)N4C3)nccc12 [Compound 3155, 1,1,1-trifluoro-2-methylpropan-2-yl((2R,6S,7R,9S,13aS,14aR,16aS,Z)-2-((7-fluoro-5-methoxyisoquinolin-1-yl)oxy)-7,9-dimethyl-14a-(((1-methylcyclopropyl)sulfonyl)carbamoyl)-5,16-dioxo-1,2,3,5,6,7,8,9,10,11,13a,14,14a,15,16,16a-hexadecahydrocyclopropa[e]pyrrolo[1,2-a][1,4]diazacyclopentadecin-6-yl)carbamate] | 6.99 to 8.32 | 6.99 to 8.32 |  |  | 
4 | C[C@@H]1CC/C=C\[C@@H]2C[C@@]2(C(=O)NS(=O)(=O)C2CC2)NC(=O)[C@@H]2C[C@@H](Oc3nc(OCC(F)F)cc4c(Cl)cccc34)CN2C(=O)[C@@H](NC(=O)OC(C)(C)C(C)(F)F)[C@H](C)C1 [Compound 1112, 3,3-difluoro-2-methylbutan-2-yl((2R,6S,7R,9R,13aS,14aR,16aS,Z)-2-((5-chloro-3-(2,2-difluoroethoxyl)isoquinolin-1-yl)oxy)-14a-((cyclopropylsulfonyl)carbamoyl)-7,9-dimethyl-5,16-dioxo-1,2,3,5,6,7,8,9,10,11,13a,14,14a,15,16,16a-hexadecahydrocyclopropa[e]pyrrolo[1,2-a][1,4]diazacyclopentadecin-6-yl)carbamate] | > 8.26 | > 8.26 |  |  | 
5 | COc1cc(F)cc2c(O[C@@H]3C[C@H]4C(=O)N[C@]5(C(=O)NS(=O)(=O)C6CC6)C[C@H]5/C=C\CC[C@H](C)C[C@@H](C)[C@H](NC(=O)OC(C)(C)C)C(=O)N4C3)nccc12 [Compound 3163, tert-butyl ((2R,6S,7R,9S,13aS,14aR,16aS,Z)-14a-((cyclopropylsulfonyl)carbamoyl)-2-((7-fluoro-5-methoxyisoquinolin-1-yl)oxy)-7,9-dimethyl-5,16-dioxo-1,2,3,5,6,7,8,9,10,11,13a,14,14a,15,16,16a-hexadecahydrocyclopropa[e]pyrrolo[1,2-a][1,4]diazacyclopentadecin-6-yl)carbamate] | 6.99 to 8.32 | 6.99 to 8.32 |  |  | 
6 | CC[C@@H]1C[C@H](C)CC/C=C\[C@@H]2C[C@@]2(C(=O)NS(=O)(=O)C2(C)CC2)NC(=O)[C@@H]2C[C@@H](Oc3nc4c(c5ccccc35)OCCC4)CN2C(=O)[C@H]1NC(=O)OC(C)(C)C [Compound 6024, tert-butyl ((2R,6S,7R,9R,13aS,14aR,16aS,Z)-2-((3,4-dihydro-2H-pyrano[3,2-c]isoquinolin-6-yl)oxy)-7-ethyl-9-methyl-14a-(((1-methylcyclopropyl)sulfonyl)carbamoyl)-5,16-dioxo-1,2,3,5,6,7,8,9,10,11,13a,14,14a,15,16,16a-hexadecahydrocyclopropa[e]pyrrolo[1,2-a][1,4]diazacyclopentadecin-6-yl)carbamate] |  |  | > 8.26 | > 8.26 | 
7 | COc1ccc2c(O[C@@H]3C[C@H]4C(=O)N[C@]5(C(=O)NS(=O)(=O)C6CC6)C[C@H]5/C=C\CC[C@H](C)C[C@@H](C)[C@H](NC(=O)NC(C)(C)C)C(=O)N4C3)nc(-c3ccc(OC(C)C)nc3)cc2c1 [Compound 5220, (2R,6S,7R,9S,13aS,14aR,16aS,Z)-6-(3-(tert-butyl)ureido)-N-(cyclopropylsulfonyl)-2-((3-(6-isopropoxypyridin-3-yl)-6-methoxyisoquinolin-1-yl)oxy)-7,9-dimethyl-5,16-dioxo-1,2,3,5,6,7,8,9,10,11,13a,14,14a,15,16,16a-hexadecahydrocyclopropa[e]pyrrolo[1,2-a][1,4]diazacyclopentadecine-14a-carboxamide] |  |  | > 8.26 | > 8.26 | 
8 | [2H]C([2H])([2H])C(OC(=O)N[C@@H]1C(=O)N2C[C@H](Oc3nccc4cc(OC)ccc34)CC2C(=O)N[C@]2(C(=O)NS(=O)(=O)C3(C)CC3)C[C@H]2/C=C\CC[C@H](C)C[C@H]1C)(C([2H])([2H])[2H])C(F)(F)F (stereo partly drawn) [Compound 5174, 1,1,1,3,3,3-hexadeutero-2-(trifluoromethyl)propan-2-yl((2R,6S,7R,9S,13aS,14aR,16aS,Z)-2-((6-methoxyisoquinolin-1-yl)oxy)-7,9-dimethyl-14a-(((1-methylcyclopropyl)sulfonyl)carbamoyl)-5,16-dioxo-1,2,3,5,6,7,8,9,10,11,13a,14,14a,15,16,16a-hexadecahydrocyclopropa[e]pyrrolo[1,2-a][1,4]diazacyclopentadecin-6-yl)carbamate] |  |  | > 8.26 | > 8.26 | 
9 | C[C@H]1CC/C=C\[C@@H]2C[C@@]2(C(=O)NS(=O)(=O)C2CC2)NC(=O)[C@@H]2C[C@@H](Oc3nccc4c5c(ccc34)OC(F)(F)O5)CN2C(=O)[C@@H](NC(=O)OCC2(C)CC2)[C@H](C)C1 [Compound 5271, (1-methylcyclopropyl)methyl ((2R,6S,7R,9S,13aS,14aR,16aS,Z)-14a-((cyclopropylsulfonyl)carbamoyl)-2-((2,2-difluoro-[1,3]dioxolo[4,5-f]isoquinolin-6-yl)oxy)-7,9-dimethyl-5,16-dioxo-1,2,3,5,6,7,8,9,10,11,13a,14,14a,15,16,16a-hexadecahydrocyclopropa[e]pyrrolo[1,2-a][1,4]diazacyclopentadecin-6-yl)carbamate] |  |  | 6.99 to 8.32 | 6.99 to 8.32 | 
10 | CC[C@@H]1C[C@H](C)CC/C=C\[C@@H]2C[C@@]2(C(=O)NS(=O)(=O)C2(C)CC2)NC(=O)[C@@H]2C[C@@H](Oc3nc4c(c5cc(OC)c(F)cc35)CCCO4)CN2C(=O)[C@H]1NC(=O)OC(C)(C)C(C)(F)F [Compound 1198] |  |  |  |  | pEC50 ([1]; GETYPE1A, HCV genotype 1a replicon luciferase, read-out: LE_1a (EC50)): 9.30; pEC50 ([1]; GETYPE1A, HCV genotype 1a replicon luciferase, read-out: LE_1a (EC50, range)): 9.30 to 10.00; pEC50 ([2]; GETYPE1B, HCV genotype 1b replicon luciferase, read-out: LE_1b (EC50)): 9.05; pEC50 ([2]; GETYPE1B, HCV genotype 1b replicon luciferase, read-out: LE_1b (EC50, range)): 9.00 to 9.29
11 | [2H]C([2H])([2H])C(OC(=O)N[C@@H]1C(=O)N2C[C@H](Oc3nnc(OCC)c4ccccc34)C[C@H]2C(=O)N[C@]2(C(=O)NS(=O)(=O)C3CC3)C[C@H]2/C=C\CC[C@H](C)C[C@H]1C)(C([2H])([2H])[2H])C(F)(F)F [Compound 5038] |  |  | 6.99 to 8.32 | 6.99 to 8.32 | 
12 | COCCOc1cnc(O[C@@H]2C[C@H]3C(=O)N[C@]4(C(=O)NS(=O)(=O)C5CC5)C[C@H]4/C=C\CC[C@@H](C)C[C@@H](C)[C@H](NC(=O)OC(C)(C)C)C(=O)N3C2)c2ccccc12 [Compound 1033, tert-butyl ((2R,6S,7R,9R,13aS,14aR,16aS,Z)-14a-((cyclopropylsulfonyl)carbamoyl)-2-((4-(2-methoxyethoxyl)isoquinolin-1-yl)oxy)-7,9-dimethyl-5,16-dioxo-1,2,3,5,6,7,8,9,10,11,13a,14,14a,15,16,16a-hexadecahydrocyclopropa[e]pyrrolo[1,2-a][1,4]diazacyclopentadecin-6-yl)carbamate] | > 8.26 | > 8.26 |  |  | 
13 | CC[C@@H]1C[C@H](C)CC/C=C\[C@@H]2C[C@@]2(C(=O)NS(=O)(=O)C2(C)CC2)NC(=O)[C@@H]2C[C@@H](Oc3ncc(OC)c4ccc(F)cc34)CN2C(=O)[C@H]1NC(=O)N1CCS(=O)(=O)CC1 [Compound 4283, N-((2R,6S,7R,9R,13aS,14aR,16aS,Z)-7-ethyl-2-((7-fluoro-4-methoxyisoquinolin-1-yl)oxy)-9-methyl-14a-(((1-methylcyclopropyl)sulfonyl)carbamoyl)-5,16-dioxo-1,2,3,5,6,7,8,9,10,11,13a,14,14a,15,16,16a-hexadecahydrocyclopropa[e]pyrrolo[1,2-a][1,4]diazacyclopentadecin-6-yl)thiomorpholine-4-carboxamide 1,1-dioxide] |  |  | 7.46 to 8.30 | 8.30 to 9.00 | 
